{"source": "patent US20250223303A1", "about": "“TRICYCLIC BORONIC ACID DERIVATIVE, AND PREPARATION METHOD THEREFOR AND APPLICATION THEREOF” (priority 2021, published 2025)", "key": {"[1]": {"system": "Acinetobacter baumannii ARLG-1791 OXA-23", "experiment": "MIC test of compounds in combination with antibiotics, Acinetobacter baumannii ARLG-1791", "conditions": "Acinetobacter baumannii ARLG-1791 OXA-23", "method": "(§15) 2-Fold gradient dilution of antibiotics: 300 μL of CAMHVIB medium was added to columns 2-12 of a 96-deep well plate. In column 1, 24 μL of antibiotic stock solution and 576 µL of CAMHB medium were added and mixed well, with a concentration of 512 μg/mL. 300 µL of antibiotic solution was transferred from the column 1 to the second column and mixed well. The process was repeated until column 11, and the column 12 was a blank control.\n(§16) Dilution of combined compounds: the compound was diluted 400-fold to 32 μg/ml with CAMHB medium.\n(§17) Working solution aliquoting: 25 μL of antibiotics was aliquoted into the 96-U bottom plate with a pipette, and 25 μL of combined compound was added to each well. If antibiotics were used alone, 25 μL of CAMHB medium was added.\n(§18) Inoculum solution preparation: 5-6 single colonies were selected from the plate and suspended in normal saline. The bacterial suspension was adjusted to 0.2 (i.e., 0.5 McFarland turbidity, with a bacterial concentration was about 1 to 2×10^8 CFU/mL) with a turbidity meter. The bacterial suspension was diluted 100-fold with CAMHB medium for later use.\n(§19) Inoculation: 50 μL of inoculum solution was transferred to the above 50 μL compound plate with a pipette.\n(§20) Culture: The 96-U bottom plate was placed in an incubator at 37° C. for 18 to 20 h."}, "[2]": {"system": "Acinetobacter baumannii WX-AB005", "experiment": "MIC test of compounds in combination with antibiotics, Acinetobacter baumannii WX-AB005", "conditions": "Acinetobacter baumannii WX-AB005", "method": "as §15, §16, §17, §18, §19, §20"}, "[3]": {"system": "Klebsiella pneumoniae ATCC BAA-2470", "experiment": "MIC test of compounds in combination with antibiotics, Klebsiella pneumoniae ATCC BAA-2470", "conditions": "Klebsiella pneumoniae ATCC BAA-2470 NDM-1"}, "OXA-10": {"molecular_target": "T1, OXA-10 (Pseudomonas aeruginosa, UniProt P14489)", "T1 construct": "purchased GenScript Biotech Co., Ltd", "T1 sequence (P14489 20-266)": "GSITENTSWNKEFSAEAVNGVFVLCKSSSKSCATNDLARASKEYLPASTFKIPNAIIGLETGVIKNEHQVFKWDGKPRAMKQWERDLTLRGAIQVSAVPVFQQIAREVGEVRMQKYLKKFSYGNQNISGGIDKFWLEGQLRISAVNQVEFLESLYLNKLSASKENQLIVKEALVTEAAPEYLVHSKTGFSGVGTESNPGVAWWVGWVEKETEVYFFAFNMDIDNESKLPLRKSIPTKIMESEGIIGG", "experiment": "Enzyme activity test (FC5 fluorescent substrate), OXA-10", "type": "biochemical", "conditions": "enzyme 350 pM, substrate FC5 50 μM", "experimental": "(§1) Compound stock solution: the compound was prepared as a 50 mM DMSO stock solution. […] After aliquoting, the compound stock solutions were stored at −20° C.\n(§2) Preparation and storage of antibiotic substrate stock solution: antibiotic fluorescent substrate FC5 was synthesized internally and prepared as a 2 mM stock solution, which was stored at −20° C. after aliquoting.\n(§3) Storage of β-lactamases: each […] was synthesized by GenScript Biotech Co., Ltd., and stored at −80° C. after aliquoting to avoid repeated freezing and thawing.\n(§4) Preparation of enzyme activity reaction buffer: SBL buffer: PBS pH 7.4, 0.01% (v/v) Triton X-100; MBL buffer: 50 Mm HEPES in PBS pH 7.2, 1 μM ZnSO4, 1 μg/mL BSA, 0.010% v/v Triton X-100\n(§5) a) The compound to be tested and buffer were taken out and warmed to room temperature.\n(§6) b) Each compound was diluted with DMSO and buffer to the initial experimental concentration (Table 2), and then the compound was diluted 3-fold for a total of 10 concentrations.\n(§7) c) Diluted compounds were added to wells 1 to 20 of a 384-well black plate at 2 replicate wells per concentration, 5 μL per well. 5 µL of DMSO was added to wells 21 to 24.\n(§8) d) Each enzyme was diluted to the experimental concentration (Table 2) in SBL and MBL buffers, and finally 35 μL/well was added, with a total of 22 wells. 35 μL buffer was added to wells 23 to 24. Wells 21 to well 22 served as the maximum test values (Max), while wells 23 to 24 were designated as the minimum test values (Min).\n(§9) e) The 384-well plate was centrifuged quickly and incubated for 10 minutes at room temperature.\n(§10) f) The antibiotic substrate FC5 was diluted in buffer to the experimental concentration of each enzyme (Table 2).\n(§11) g) The incubated 384-well plate was taken out and FC-5 was added to wells […]. The 384-well plate was centrifuged rapidly and promptly transferred to a microplate reader for reading.\n(§12) h) The fluorescence intensity was measured at 355 nm excitation light/460 nm emission light in the microplate reader, and the fluorescence intensity was measured every three minutes for a total of 10 measurements.\n(§13) Initial velocity of enzyme reaction V: Subtract the background reading (Min wells) without enzyme from each fluorescence intensity reading, and then perform on a linear regression analysis on each compound concentration group. The slope is the initial velocity of enzyme reaction (V) at each compound concentration.\n(§14) Dose-effect curve and IC50 calculation of compounds: The initial velocity of enzyme reaction under the effect of each concentration of compounds was subjected to nonlinear regression fitting. The IC50 (half-maximal inhibitory concentration) of each compound was calculated using the formula […] (Vi: the initial velocity of enzyme reaction at each compound concentration; V0: initial velocity of enzyme reaction without the compound (Max wells). The software used was Graphpad prism 8."}, "Ampc": {"molecular_target": "Ampc (UniProt P24735)", "experiment": "Enzyme activity test (FC5 fluorescent substrate), AmpC", "type": "biochemical", "conditions": "enzyme 25 pM, substrate FC5 15 μM", "experimental": "as §1, §2, §3, §4, §5, §6, §7, §8, §9, §10, §11, §12, §13, §14"}}}
{"smiles": "NCCNC1CCC(CC(=O)N[C@H]2Cc3cccc(C(=O)O)c3OB2O)CC1", "note": "(some centres unmarked) [VNRX-5133, reference compound]", "values": [{"measurement": "MIC", "setting": "[1]; Cefepime + compound (8 μg/mL)", "value": 16, "unit": "µg/mL"}, {"measurement": "MIC", "setting": "[1]; Meropenem + compound (8 μg/mL)", "value": 128, "unit": "µg/mL"}, {"measurement": "MIC", "setting": "[2]; Cefepime + compound (8 μg/mL)", "value": 128, "unit": "µg/mL"}, {"measurement": "MIC", "setting": "[2]; Meropenem + compound (8 μg/mL)", "value": 128, "unit": "µg/mL"}, {"measurement": "MIC", "setting": "[3]; Cefepime + compound (8 μg/mL)", "value": 1, "unit": "µg/mL"}, {"measurement": "MIC", "setting": "[3]; Meropenem + compound (8 μg/mL)", "value": 1, "unit": "µg/mL"}, {"measurement": "IC50", "setting": "OXA-10", "value": 463, "unit": "nM"}, {"measurement": "IC50", "setting": "Ampc", "value": 857, "unit": "nM"}]}
